Entries after “also recorded” stand apart in the source; their conditions may differ.
Tests used:
[1] = test system: peripheral nerve injury sheep model; experiment: Mechanical allodynia (hindlimb withdrawal threshold, von Frey filaments) after intrathecal morphine in the peripheral nerve injury sheep model; assay type: in vivo; conditions: intrathecal morphine sulfate 50 to 1200 micrograms, three weeks after peripheral nerve injury
Experimental: After the placement of an intrathecal catheter and the documentation of a lack of any neurological deficits, common peroneal nerve injury surgery was performed. As described previously, the sheep was premedicated with intramuscular ketamine, intubated and mechanically ventilated. The sheep was positioned laterally and the hind leg was sterilely prepared and draped. A vertical incision was made mid-thigh. The semimembranous and semitendinous muscle bellies were separated to expose the common peroneal nerve and tibial nerve. The common peroneal nerve was ligated with 2-0 silk suture and cut distally. A 1-cm segment was removed from the distal stump to prevent re-growth. Fascia and skin were closed. […]
Based on the response to the first von-frey stimuli presented the following stimulus was increased if a negative or null response or decreased if there was a positive response. The 50% response threshold was calculated using the formula: 50% g threshold=(10^[x^f^+κδ]/10,000. The 50% withdrawal thresholds to von-frey filaments were used to assess the behavior change. To avoid inter-observer variability, one investigator did the majority of behavioral experiments. Additionally, each sheep did only one behavioral test per day.
Baseline withdrawal thresholds to mechanical stimulation were measured prior to morphine administration and at ten-minute intervals post-morphine. […]

[2] = test system: peripheral nerve injury sheep model; experiment: Mechanical hyperalgesia (pin-prick test) after intrathecal morphine in the peripheral nerve injury sheep model; assay type: in vivo
Experimental: Adult female merino sheep weighing 40-60 kg were used to produce the peripheral nerve injury sheep model. All experimental procedures were approved by the Institutional of Animal Care and Use Committee at the University of Texas Medical Branch and were in accordance with the guidelines of National Institutes of Health and of the International Association for the study of Pain (IASP).
Sheep were fasted for 24 hours prior to surgery. General anesthesia was given followed by 600 mg IM injection of ketamine. An intravenous line was placed in the external jugular and the sheep received an additional 200 mg of ketamine IV and a prophylactic dose of cefazolin 1 g IV. After intubation, the sheep were maintained on 2% isoflurane in oxygen and mechanically ventilated. The sheep received IV fluids (0.9% Normal Saline). Body temperature was maintained with a circulating water pad. Oxygen saturation was monitored and maintained between 98-100%. Heart rate and blood pressure remained within normal limits and required no adjustments. Sheep was positioned prone with hind limbs positioned cephalad beside the abdomen. A positioning pillow was placed under the chest, raising the head and chest and allowing a lordotic curve of the lumbar spine. The sheep was loosely secured to the operating table. The lumbrosacral area was sterilely prepped with betadine and draped. A vertical midline incision was made over the L-6 to S-2 vertebrae. The spinous processes of L6 and S1 were partially resected to allow greater exposure of the dura. A purse string of 7-O nylon was placed in the dura, the dura carefully lifted and nicked. A RACZ epidural catheter (16 Ga×36) catheter with snaplock catheter/syringe adapter was placed into the subarachnoid space and advanced until the 10 cm mark was at the opening of the dura. Once CSF flow through the catheter was confirmed, the dura was pulled close to the catheter with the purse string and the catheter was secured to the muscle fascia. The dura, muscle fascia, and skin were closed. The catheter was looped and secured subcutaneously. The catheter was then tunneled and secured to the skin of the sheep with suture. The sheep was allowed 5 days to recover and was tested for neurologic deficits. Animals with neurologic deficits were sacrificed.
After the placement of an intrathecal catheter and the documentation of a lack of any neurological deficits, common peroneal nerve injury surgery was performed. As described previously, the sheep was premedicated with intramuscular ketamine, intubated and mechanically ventilated. The sheep was positioned laterally and the hind leg was sterilely prepared and draped. A vertical incision was made mid-thigh. The semimembranous and semitendinous muscle bellies were separated to expose the common peroneal nerve and tibial nerve. The common peroneal nerve was ligated with 2-0 silk suture and cut distally. A 1-cm segment was removed from the distal stump to prevent re-growth. Fascia and skin were closed.
With the sheep in the stanchion, a pin-prick test was performed using a 300 gram von-frey filament. […] The duration of hindlimb withdrawal was recorded^14.
Three weeks after peroneal nerve injury, the analgesic effect of morphine was measured. […]
Baseline withdrawal thresholds to mechanical stimulation were measured prior to morphine administration and at ten-minute intervals post-morphine. The anti-nociceptive effect of morphine time course was determined by measuring the pin-prick frequency every 10-min after intrathecal administration. […]

[3] = 200 micrograms intrathecal, measured by pin prick
[4] = intrathecal 2 to 1200 micrograms, three weeks after peroneal nerve injury, 30 minutes after drug delivery

Structure (SMILES): CN1CC[C@]23c4c5ccc(O)c4O[C@H]2[C@@H](O)C=C[C@H]3[C@H]1C5 [morphine]
- hindlimb withdrawal threshold, reversal (contralateral hindlimb) [1]: completely reversed
- increase of hindlimb withdrawal threshold on the ipsilateral hindlimb [1]: 36%
- duration of analgesia [2, 3]: > 120 min
- time of peak analgesia [2, 3]: 30 min
- reduction in efficacy, ipsilateral compared to contralateral dose response curve [2, 4]: approximately 4 fold
- reduction in potency, ipsilateral compared to contralateral dose response curve [2, 4]: approximately 2 fold
- analgesic effect after nerve injury / injured versus contralateral hindlimb (in words) ([2]; intrathecal, ipsilateral (nerve injured) vs contralateral (non-injured) hindlimb): significantly reduced; also recorded: much less analgesia; also recorded: more potency on the contralateral

Reference: patent US8212104B2, “Model of experimentally induced chronic pain and uses thereof” (The Board of Regents of the University of Texas System, priority 2008, dated 2012)
